Data taken from ChEMBL document CHEMBL4765476, “MCC950, a NLRP3 inhibitor, ameliorates lipopolysaccharide-induced lung inflammation in mice” (Bioorg Med Chem, 2021).
The source made the active and inactive calls. No cut-off for these calls is given here.

Assays:
Mus musculus [1] = experiment: Antiinflammatory activity in ICR mouse assessed as reduction in LPS-induced IL-1beta expression in lungs at 0.5 mg/kg, ip administered 18 hrs before LPS-stimulation and measured after 24 hrs by Western blot analysis; format: functional, organism-based; conditions: time 42.0 hrs
Mus musculus [2] = experiment: Antiinflammatory activity in ICR mouse assessed as reduction in LPS-induced MMP-9 mRNA expression in lungs at 0.5 mg/kg, INH administered 18 hrs before LPS-stimulation and measured after 24 hrs by qRT-PCR analysis; format: functional, organism-based; conditions: time 42.0 hrs
Mus musculus [3] = experiment: Antiinflammatory activity in ICR mouse assessed as reduction in LPS-induced neutrophil level in BALF at 0.5 mg/kg, ip administered 18 hrs before LPS-stimulation and measured after 24 hrs by FACS analysis relative to control; format: functional; conditions: time 42 hrs
Mus musculus [4] = experiment: Antiinflammatory activity in ICR mouse assessed as reduction in LPS-induced caspase-1 expression in lungs at 0.5 mg/kg, INH administered 18 hrs before LPS-stimulation and measured after 24 hrs by Western blot analysis; format: functional, organism-based; conditions: time 42.0 hrs
Mus musculus [5] = experiment: Antiinflammatory activity in ICR mouse assessed as reduction in LPS-induced IL-1beta expression in serum at 0.5 mg/kg, ip administered 18 hrs before LPS-stimulation and measured after 24 hrs by ELISA; format: functional, organism-based; conditions: time 42.0 hrs
Mus musculus [6] = experiment: Antiinflammatory activity in ICR mouse assessed as reduction in LPS-induced lymphocyte level in BALF at 0.5 mg/kg, INH administered 18 hrs before LPS-stimulation and measured after 24 hrs by FACS analysis relative to control; format: functional; conditions: time 42 hrs
Mus musculus [7] = experiment: Antiinflammatory activity in ICR mouse assessed as reduction in LPS-induced IL-1beta mRNA expression in lungs at 0.5 mg/kg, INH administered 18 hrs before LPS-stimulation and measured after 24 hrs by qRT-PCR analysis; format: functional, organism-based; conditions: time 42.0 hrs
Mus musculus [8] = experiment: Antiinflammatory activity in ICR mouse assessed as reduction in LPS-induced macrophage level in BALF at 0.5 mg/kg, ip administered 18 hrs before LPS-stimulation and measured after 24 hrs by FACS analysis relative to control; format: functional; conditions: time 42 hrs
Mus musculus [9] = experiment: Antiinflammatory activity in ICR mouse assessed as reduction in LPS-induced IL-1beta expression in lungs at 0.5 mg/kg, INH administered 18 hrs before LPS-stimulation and measured after 24 hrs by Western blot analysis; format: functional, organism-based; conditions: time 42.0 hrs
Mus musculus [10] = experiment: Antiinflammatory activity in ICR mouse assessed as reduction in LPS-induced IL-1beta expression in serum at 0.5 mg/kg, INH administered 18 hrs before LPS-stimulation and measured after 24 hrs by ELISA; format: functional, organism-based; conditions: time 42.0 hrs
Mus musculus [11] = experiment: Antiinflammatory activity in ICR mouse assessed as reduction in LPS-induced macrophage level in BALF at 0.5 mg/kg, INH administered 18 hrs before LPS-stimulation and measured after 24 hrs by FACS analysis relative to control; format: functional; conditions: time 42 hrs
Mus musculus [12] = experiment: Antiinflammatory activity in ICR mouse assessed as reduction in LPS-induced neutrophil level in BALF at 0.5 mg/kg, INH administered 18 hrs before LPS-stimulation and measured after 24 hrs by FACS analysis relative to control; format: functional; conditions: time 42 hrs
Mus musculus [13] = experiment: Antiinflammatory activity in ICR mouse assessed as reduction in LPS-induced TGF-beta1 mRNA expression in lungs at 0.5 mg/kg, ip administered 18 hrs before LPS-stimulation and measured after 24 hrs by qRT-PCR analysis; format: functional, organism-based; conditions: time 42.0 hrs
Mus musculus [14] = experiment: Antiinflammatory activity in ICR mouse assessed as reduction in LPS-induced IL-18 expression in serum at 0.5 mg/kg, ip administered 18 hrs before LPS-stimulation and measured after 24 hrs by ELISA; format: functional, organism-based
Mus musculus [15] = experiment: Antiinflammatory activity in ICR mouse assessed as reduction in LPS-induced IL-8 mRNA expression in lungs at 0.5 mg/kg, INH administered 18 hrs before LPS-stimulation and measured after 24 hrs by qRT-PCR analysis; format: functional, organism-based; conditions: time 42.0 hrs
Mus musculus [16] = experiment: Antiinflammatory activity in ICR mouse assessed as reduction in LPS-induced IL-18 expression in serum at 0.5 mg/kg, INH administered 18 hrs before LPS-stimulation and measured after 24 hrs by ELISA; format: functional, organism-based; conditions: time 42.0 hrs
Mus musculus [17] = experiment: Antiinflammatory activity in ICR mouse assessed as reduction in LPS-induced neutrophil infiltration in lungs at 0.5 mg/kg, INH administered 18 hrs before LPS-stimulation and measured after 24 hrs by H and E staining based imaging analysis relative to control; format: functional; conditions: time 42 hrs
Mus musculus [18] = experiment: Antiinflammatory activity in ICR mouse assessed as reduction in LPS-induced IL-8 mRNA expression in lungs at 0.5 mg/kg, ip administered 18 hrs before LPS-stimulation and measured after 24 hrs by qRT-PCR analysis; format: functional, organism-based; conditions: time 42.0 hrs
Mus musculus [19] = experiment: Antiinflammatory activity in ICR mouse assessed as reduction in LPS-induced caspase-1 expression in lungs at 0.5 mg/kg, ip administered 18 hrs before LPS-stimulation and measured after 24 hrs by Western blot analysis; format: functional, organism-based; conditions: time 42.0 hrs
Mus musculus [20] = experiment: Antiinflammatory activity in ICR mouse assessed as reduction in LPS-induced IL-1beta mRNA expression in lungs at 0.5 mg/kg, ip administered 18 hrs before LPS-stimulation and measured after 24 hrs by qRT-PCR analysis; format: functional, organism-based; conditions: time 42.0 hrs
Mus musculus [21] = experiment: Antiinflammatory activity in ICR mouse assessed as reduction in LPS-induced TGF-beta1 mRNA expression in lungs at 0.5 mg/kg, INH administered 18 hrs before LPS-stimulation and measured after 24 hrs by qRT-PCR analysis; format: functional, organism-based; conditions: time 42.0 hrs
Mus musculus [22] = experiment: Antiinflammatory activity in ICR mouse assessed as reduction in LPS-induced neutrophil infiltration in lungs at 0.5 mg/kg, ip administered 18 hrs before LPS-stimulation and measured after 24 hrs by H and E staining based imaging analysis relative to control; format: functional; conditions: time 42 hrs
Mus musculus [23] = experiment: Antiinflammatory activity in ICR mouse assessed as reduction in LPS-induced MMP-9 mRNA expression in lungs at 0.5 mg/kg, ip administered 18 hrs before LPS-stimulation and measured after 24 hrs by qRT-PCR analysis; format: functional, organism-based; conditions: time 42.0 hrs
Mus musculus [24] = experiment: Antiinflammatory activity in ICR mouse assessed as reduction in LPS-induced lymphocyte level in BALF at 0.5 mg/kg, ip administered 18 hrs before LPS-stimulation and measured after 24 hrs by FACS analysis relative to control; format: functional; conditions: time 42 hrs

`C[C@@H]1C[C@H]2[C@@H]3CCC4=CC(=O)C=C[C@]4(C)[C@@]3(F)[C@@H](O)C[C@]2(C)[C@@]1(O)C(=O)CO` [DEXAMETHASONE] was tested. Which inhibition (Mus musculus [1]) did it give?
Its inhibition is “Active”.

And the inhibition (Mus musculus [2])?
The inhibition was “Active”.

And the inhibition in vivo at 0.5 mg/kg (Mus musculus [3])?
The inhibition in vivo at 0.5 mg/kg was 66.9%.

What about the inhibition (Mus musculus [4]) of the same compound?
The inhibition was “Active”.

And the inhibition (Mus musculus [5])?
The inhibition was “Active”.

What about the inhibition in vivo at 0.5 mg/kg (Mus musculus [6]) of the same compound?
Its inhibition in vivo at 0.5 mg/kg is 30.6%.

And the inhibition (Mus musculus [7])?
The inhibition was “Active”.

What about the inhibition in vivo at 0.5 mg/kg (Mus musculus [8]) of the same compound?
The inhibition in vivo at 0.5 mg/kg was 75.1%.

And the inhibition (Mus musculus [9])?
The inhibition was “Active”.

What about the inhibition (Mus musculus [10]) of the same compound?
Its inhibition is “Active”.

What about the inhibition in vivo at 0.5 mg/kg (Mus musculus [11]) of the same compound?
The inhibition in vivo at 0.5 mg/kg was 40.9%.

And the inhibition in vivo at 0.5 mg/kg (Mus musculus [12])?
The inhibition in vivo at 0.5 mg/kg was 72.9%.

What about the inhibition (Mus musculus [13]) of the same compound?
Its inhibition is “Active”.

And the inhibition (Mus musculus [14])?
Its inhibition is “Active”.

And the inhibition (Mus musculus [15])?
Its inhibition is “Active”.

What about the inhibition (Mus musculus [16]) of the same compound?
Its inhibition is “Active”.

And the inhibition in vivo at 0.5 mg/kg (Mus musculus [17])?
Its inhibition in vivo at 0.5 mg/kg is 55.9%.

And the inhibition (Mus musculus [18])?
The inhibition was “Active”.

What about the inhibition (Mus musculus [19]) of the same compound?
The inhibition was “Active”.

What about the inhibition (Mus musculus [20]) of the same compound?
Its inhibition is “Active”.

What about the inhibition (Mus musculus [21]) of the same compound?
The inhibition was “Active”.

And the inhibition in vivo at 0.5 mg/kg (Mus musculus [22])?
Its inhibition in vivo at 0.5 mg/kg is 58.7%.

And the inhibition (Mus musculus [23])?
Its inhibition is “Active”.

And the inhibition in vivo at 0.5 mg/kg (Mus musculus [24])?
Its inhibition in vivo at 0.5 mg/kg is 46.1%.
